From US20200216417A1, “INHIBITORS OF FIBROBLAST ACTIVATION PROTEIN” (Praxis Biotech LLC, priority 2019, published 2020)
pIC50: −log10 of the molar value.

Columns and labels:
circulating FAPα = target: T1, circulating FAPα (Homo sapiens, UniProt Q12884); experiment: Ex vivo inhibition of circulating FAPα activity from human plasma (PRXS-AMC); format: biochemical
T1 construct: from tissue; host or cells: human plasma (EDTA-K2) from healthy volunteers
T1 sequence (Q12884 24-760 limits assumed): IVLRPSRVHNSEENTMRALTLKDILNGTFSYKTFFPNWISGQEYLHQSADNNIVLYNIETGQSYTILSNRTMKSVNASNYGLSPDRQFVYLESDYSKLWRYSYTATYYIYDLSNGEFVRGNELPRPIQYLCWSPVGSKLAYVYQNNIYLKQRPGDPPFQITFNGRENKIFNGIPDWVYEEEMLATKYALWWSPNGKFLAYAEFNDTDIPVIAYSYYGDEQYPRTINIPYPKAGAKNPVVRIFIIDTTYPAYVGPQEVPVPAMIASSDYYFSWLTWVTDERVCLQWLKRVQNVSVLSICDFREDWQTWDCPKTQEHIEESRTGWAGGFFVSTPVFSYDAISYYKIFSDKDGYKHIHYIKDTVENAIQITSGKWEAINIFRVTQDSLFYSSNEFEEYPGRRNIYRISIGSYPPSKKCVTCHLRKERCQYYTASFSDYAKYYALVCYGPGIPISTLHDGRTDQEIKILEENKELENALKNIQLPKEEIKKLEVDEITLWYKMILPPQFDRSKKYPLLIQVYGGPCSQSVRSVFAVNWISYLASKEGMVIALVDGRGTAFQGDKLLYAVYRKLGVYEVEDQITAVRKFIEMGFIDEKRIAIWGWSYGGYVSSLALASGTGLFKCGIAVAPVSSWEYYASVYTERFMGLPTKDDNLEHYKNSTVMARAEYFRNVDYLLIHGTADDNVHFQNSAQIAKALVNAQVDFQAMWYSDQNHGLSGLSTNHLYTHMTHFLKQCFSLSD
Protocol: Human blood was obtained from healthy young volunteers. Blood samples were collected in tubes coated with EDTA-K2 by venipuncture method, mixed gently, then kept on ice and centrifuged at 2,500×g for 15 minutes at 4° C. After plasma separation, samples were stored at −80° C. in aliquots of 300 μL.
Exemplary compounds were allowed to interact with the enzyme for 15 minutes at 37° C. After pre-incubation, 50 μl of 200 μM PRXS-AMC substrate were added to the all mixtures. All reactions were carried out for 1 h at 37° C. protected from light. AMC release was detected measuring fluorescence at an excitation/emission wavelength of 380/460 nm using a Multifunction Microplate Reader. All measurements were carried out as single point.

[1] = tested on: human AML cell line MV4-11; experiment: Cytotoxicity assay in human leukemia cell lines (Cell-Titer Glo); details: MV4-11, 48 h, read-out: MV4-11 viability IC50, μM

## COc1ccc(C(=O)Nc2cnccc2C(=O)NCC(=O)N2CC(F)(F)C[C@H]2C#N)cc1 [Compound 3, (S)—N-(2-(2-cyano-4,4-difluoropyrrolidin-1-yl)-2-oxoethyl)-3-(4-methoxybenzamido)isonicotinamide]
Circulating FAPα
  pIC50: > 6.00

## N#C[C@@H]1CC(F)(F)CN1C(=O)CNC(=O)c1ccncc1/C=C/c1ccc(Cl)cc1 [Compound 9, (S,E)-3-(4-chlorostyryl)-N-(2-(2-cyano-4,4-difluoropyrrolidin-1-yl)-2-oxoethyl)isonicotinamide]
Circulating FAPα
  pIC50: > 6.00
[1]
  IC50: > 10 µM
